In patent publication US20050233389A1, “Methods and compositions for peptide and protein labeling” (priority 2003, published 2005):

Columns and labels:
BirA = BirA (Escherichia coli, UniProt P06709); experiment: Measurement of probe ligation kinetics (HPLC); assay type: biochemical, E. coli; settings: for initial rate for ligation to synthetic AP: 100 μM AP, 30° C.
Procedure: (§1) HPLC assay for probe ligation to synthetic AP. The synthetic acceptor peptide (AP) with sequence […] (SEQ ID NO: 22) was synthesized by the Tufts University Core Facility. […] Following lyophilization, the peptide was redissolved in water, and the concentration was determined from the absorbance at 280 nm using the calculated extinction coefficient of 5690 M^−1cm^−1. Reaction conditions for the probe ligation to the AP were as follows: 50 mM bicine pH 8.3, 5 mM Mg(OAc)2, 4 mM ATP, 100 μM AP, 1-2 μM BirA, and 1 mM probe (either biotin or racemic ketone 1). Reactions were incubated at 30° C. for 1-2 hours, then quenched with addition of 45 mM EDTA. Reactions were analyzed on a reverse-phase HPLC column (Microsorb-MV 300 C18). Biotin ligation reactions were analyzed using a gradient of 10-43% acetonitrile/water with 0.1% TFA over 20 minutes (flow rate 1.0 mL/min); retention times were 8.2 minutes for biotin, 16.3 minutes for the AP, and 17.7 minutes for the AP-biotin conjugate. Ketone 1 ligation reactions were analyzed using a gradient of 10-46% acetonitrile/water with 0.1 % TFA over 25 minutes (flow rate 1.0 mL/min); retention times were 16.4 minutes for ketone 1, 17.9 minutes for the AP, and 22.0 minutes for the AP-ketone 1 conjugate. For MALDI-TOF analysis, the product peak was collected, diluted with matrix solution (saturated α-cyano 4-hydroxycinnamic acid in 50% acetonitrile/water with 0.05% TFA), and spotted onto the sample target. Positive-ion MALDI-TOF data was acquired in reflector mode with external calibration.
Measurement of probe ligation kinetics. For kinetic measurements, the reaction conditions were the same as above except that 0.091 μM BirA was used, and for the ketone ligation reactions, 2 mM of racemic ketone 1 was used. A 400 μL reaction was initiated by addition of BirA and incubated at 30° C. At various timepoints, a 40 μL aliquot was removed and quenched with EDTA. Reactions were analyzed by reverse-phase HPLC as described above. The area ratios of AP and AP-probe conjugate peaks were converted to concentrations of AP-probe conjugate using a calibration curve generated by mixing known ratios of AP and AP-probe conjugate. The concentration of AP-probe conjugate was plotted versus time, and the reported initial rate was the slope of the line fit to the linear region of product synthesis.

streptavidin = streptavidin (Streptomyces avidinii, UniProt P22629); experiment: streptavidin binding to ketone 1; settings: separate experiments; data not shown
streptavidin, sequence (P22629 25-183): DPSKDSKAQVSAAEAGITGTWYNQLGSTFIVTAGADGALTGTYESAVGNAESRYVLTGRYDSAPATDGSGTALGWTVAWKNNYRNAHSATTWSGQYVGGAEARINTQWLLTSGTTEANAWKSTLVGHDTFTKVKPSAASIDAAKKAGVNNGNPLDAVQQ

wild-type BirA = wild-type BirA (Escherichia coli, UniProt P06709); experiment: HPLC assay for probe ligation to synthetic AP; assay type: biochemical, E. coli; settings: enantiomers separated by chiral HPLC; data not shown
wild-type BirA, sequence (P06709 whole entry): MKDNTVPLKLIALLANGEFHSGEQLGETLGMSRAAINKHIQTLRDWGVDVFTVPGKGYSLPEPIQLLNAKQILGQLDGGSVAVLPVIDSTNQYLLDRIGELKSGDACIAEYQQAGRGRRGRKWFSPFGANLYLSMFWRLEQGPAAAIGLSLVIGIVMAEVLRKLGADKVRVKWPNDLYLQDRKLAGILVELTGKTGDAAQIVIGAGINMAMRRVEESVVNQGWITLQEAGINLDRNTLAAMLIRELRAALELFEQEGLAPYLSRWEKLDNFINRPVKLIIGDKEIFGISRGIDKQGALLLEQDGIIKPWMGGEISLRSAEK
Procedure: as §1, with “For MALDI-TOF analysis, the product peak was collected, diluted with matrix solution (saturated α-cyano 4-hydroxycinnamic acid in 50% acetonitrile/water with 0.05% TFA), and spotted onto the sample target. Positive-ion MALDI-TOF data was acquired in reflector mode with external calibration.” left out

BirA, sequence (P06709 whole entry): as above

Row | Compound | conversion until which the ligation rate remained constant (BirA; 0.091 μM BirA) [%] | initial rate for ligation to synthetic AP (BirA; 1 mM biotin, 0.091 μM BirA) [µM/min] | binding of streptavidin to the probe itself (streptavidin) | enzyme turnovers after which the ligation rate slowed markedly (BirA; 0.091 μM BirA) [enzyme turnovers] | initial rate for ligation to synthetic AP (BirA; 2 mM racemic ketone 1, 0.091 μM BirA) [µM/min] | initial ligation rate, fold less than that for biotin ligation (BirA; ketone 1 vs biotin, identical conditions) [fold] | acceptance of separated enantiomers by BirA (wild-type BirA)
1 | O=C(O)CCCC[C@@H]1SC[C@@H]2NC(=O)N[C@@H]21 [biotin, reference compound] | > 50 | 0.954 ± 0.018 | – | – | – | – | –
2 | O=C(O)CCCC[C@@H]1SC[C@@H]2CC(=O)C[C@@H]21 [ketone 1] | – | – | does not bind | ~100 | 0.258 ± 0.024 | 3.7 | Only one enantiomer was accepted
